Test results taken from the CheMixHub viscosity set.

Assay: xn = mol fraction of the nth substance listed

CCCC1c2cc(c(O)c(/N=N/c3cccc(C(=O)O)c3)c2O)C(CCC)c2cc(c(O)c(/N=N/c3cccc(C(=O)O)c3)c2O)C(CCC)c2cc(c(O)c(/N=N/c3cccc(C(=O)O)c3)c2O)C(CCC)c2cc1c(O)c(/N=N/c1cccc(C(=O)O)c1)c2O (stereo not drawn) + CS(C)=O
viscosity [mPa·s], 101 kPa
Settings | 293.15 K | 298.15 K | 303.15 K | 308.15 K | 313.15 K
x1 = 0.000457 | 2.314 | 2.072 | 1.87 | 1.698 | 1.555
x1 = 0.000544 | 2.345 | 2.1 | 1.893 | 1.724 | 1.579
x1 = 0.000616 | 2.369 | 2.124 | 1.907 | 1.737 | 1.597
x1 = 0.000708 | 2.391 | 2.143 | 1.931 | 1.756 | 1.607
x1 = 0.0008532 | 2.425 | 2.167 | 1.952 | 1.779 | 1.625
x1 = 0.001009 | 2.471 | 2.209 | 1.991 | 1.812 | 1.651
x1 = 0.001122 | 2.52 | 2.25 | 2.024 | 1.838 | 1.68
x1 = 0.001351 | 2.556 | 2.284 | 2.045 | 1.858 | 1.695
x1 = 0.001491 | 2.633 | 2.346 | 2.104 | 1.905 | 1.739
x1 = 0.001636 | 2.678 | 2.38 | 2.138 | 1.934 | 1.764
x1 = 0.001789 | 2.724 | 2.43 | 2.176 | 1.967 | 1.79

CCCCOC(C)=O + CS(C)=O
viscosity [mPa·s], 101.33 kPa
Settings | x2 = 0.074 | x2 = 0.1418 | x2 = 0.2774 | x2 = 0.46 | x2 = 0.5396 | x2 = 0.6383 | x2 = 0.7272 | x2 = 0.809 | x2 = 0.9021 | x2 = 0.9703
293.15 K | 0.774 | 0.789 | 0.868 | 1.011 | 1.098 | 1.211 | 1.363 | 1.527 | 1.791 | 2.063
303.15 K | 0.678 | 0.692 | 0.752 | 0.879 | 0.931 | 1.032 | 1.146 | 1.28 | 1.488 | 1.697
313.15 K | 0.592 | 0.606 | 0.662 | 0.766 | 0.809 | 0.889 | 0.983 | 1.117 | 1.258 | 1.423

C=COC(C)=O + Cc1ccc(C)cc1
viscosity [mPa·s], 101 kPa
Settings | x1 = 0.1501 | x1 = 0.2469 | x1 = 0.3618 | x1 = 0.4592 | x1 = 0.5631 | x1 = 0.67 | x1 = 0.7587 | x1 = 0.8601 | x1 = 0.9478
303.15 K | 0.537 | 0.518 | 0.497 | 0.48 | 0.462 | 0.445 | 0.435 | 0.42 | 0.403
313.15 K | 0.486 | 0.467 | 0.445 | 0.428 | 0.41 | 0.393 | – | – | 0.353

CCCCOC(C)=O + Cc1ccc(C)cc1
viscosity [mPa·s], 101 kPa
Settings | 298.15 K | 308.15 K
x1 = 0.0459 | 0.615 | 0.537
x1 = 0.1511 | 0.615 | 0.54
x1 = 0.2505 | 0.618 | 0.543
x1 = 0.3511 | 0.621 | 0.547
x1 = 0.4477 | 0.626 | 0.552
x1 = 0.4948 | 0.628 | 0.555
x1 = 0.55 | 0.632 | 0.558
x1 = 0.6515 | 0.639 | 0.565
x1 = 0.7509 | 0.647 | 0.572
x1 = 0.8517 | 0.657 | 0.58
x1 = 0.9445 | 0.667 | 0.589

C=COC(C)=O + Cc1cccc(C)c1
viscosity [mPa·s], 101 kPa
Settings | x1 = 0.1482 | x1 = 0.2434 | x1 = 0.3456 | x1 = 0.4518 | x1 = 0.5741 | x1 = 0.6832 | x1 = 0.7598 | x1 = 0.8817 | x1 = 0.9602
303.15 K | 0.52 | 0.502 | 0.483 | 0.465 | 0.445 | 0.428 | 0.414 | 0.401 | 0.392
313.15 K | 0.469 | 0.452 | 0.434 | 0.416 | 0.399 | 0.383 | 0.37 | 0.358 | 0.35

CCCCOC(C)=O + Cc1cccc(C)c1
viscosity [mPa·s], 101 kPa
Settings | 298.15 K | 308.15 K
x1 = 0.0468 | 0.583 | 0.528
x1 = 0.1506 | 0.587 | 0.531
x1 = 0.2497 | 0.592 | 0.535
x1 = 0.3502 | 0.598 | 0.539
x1 = 0.4477 | 0.606 | 0.545
x1 = 0.4941 | 0.61 | 0.548
x1 = 0.549 | 0.615 | 0.551
x1 = 0.6505 | 0.625 | 0.559
x1 = 0.7501 | 0.637 | 0.568
x1 = 0.8511 | 0.651 | 0.577
x1 = 0.9409 | 0.664 | 0.587
